Laboratory results as given in US20010006794A1, “SCREENING FOR MODULATORS OF BIOMOLECULES” (priority 1995, published 2001).

Experiments:
[1] = system: Salmonella typhimurium wild type; type: cell-based
Procedure: Preliminary characterization of the utilization of large numbers of carbon sources can be carried out using manual or automated taxonomic screening devices, such as the Biolog MT, ES, GN or GP Microplate™. Alternatively, this can be performed using commercially available components. […] Briefly, strains were swabbed onto TSA plates and grown at a permissive temperature of 30° C. for 6 hours to provide an inoculum. The inoculum (MacFarland standard ˜1 in 0.89% sterile saline solution) was prepared as per Biolog “Instructions for Use” handbook, with the exception that leucine was added to correct for mutants housed in strains which were in a leucine-deficient background. Inoculum was added to Biolog GN or ES plates and incubated at the semipermissive temperature of 35° C. overnight (˜21 hr). Carbon source utilization is read colorimetrically in a microplate reader at 600 nm. Substrates that are not used similarly by wild-type and mutant are identified. […] Typically, these steps were performed using Biolog MT plates or by using a redox indicator (such as tetrazolium violet, 0.0001%) in a minimal medium with a sole carbon source (substrate being tested), supplemented with a small amount of tryptone (0.06%) or proteose peptone (0.2%). It was possible to do this in 96-well microtiter plate format, which will be adaptable to high throughput or multichannel screening.

[2] = system: Salmonella typhimurium temperature sensitive mutant gyrA212 (strain 7533); type: cell-based
Excerpt: A Salmonella typhimurium parent strain 7389 was used to form a collection of temperature sensitive mutants. […] Complementation of the mutant phenotype was done. In the case of the three mutants described in the data of this figure (gyrA202, gyrA208, gyrA212) the complemented mutants were identified to be in the A subunit of the bacterial DNA gyrase enzyme. Each mutant was altered in a different portion (see number of mutant) of the A subunit. […] The data are expressed as fold increases in susceptibility. A four-fold increase in susceptibility is the minimum change to be considered significant in this example.
Referring to FIG. 1, the experiments were essentially by the methods outlined by the National Committee for Clinical Laboratory Standards (NCCLS). Bacteria were grown in Mueller-Hinton (MH) broth with agitation at 30° C.
The antibiotic dilution ranges used were:
Novobiocin: Range 128-0 μg/ml. Coumermycin A1: Range 128-0 μg/ml. […] Norfloxacin: Range 8-0 μg/ml. Mitomycin C: Range 8-0 μg/ml Phenylmercuric acetate: Range 32-0 μg/ml. 4-Nitroquinoline Oxide: Range 32-0 μM Rifampicin: Range 128-0 μg/ml. Gentamicin: Range 32-0 μg/ml. Streptomycin: Range 128-0 μg/ml. Cefotaxime: Range 8-0 μg/ml. Ampicillin: Range 32-0 μg/ml. Phosphonomycin (or fosfomycin): Range 128-0 μg/ml. […]

[3] = wild type with sub-MIC levels of antibiotic
[4] = wild type with sub-MIC levels of antibiotic, Biolog GN plates, 35° C.

Cn1nnnc1SCC1=C(C(=O)O)N2C(=O)[C@@H](NC(=O)[C@H](O)c3ccccc3)[C@H]2SC1 [cefamandole]
utilization of D-alanine or D-serine as carbon source markers ([1]; wild type strain, sub-MICs of cell wall synthesis inhibitor): affected
overlap of carbon source utilization phenotype with the gyraseA/ciprofloxacin induced phenotype [1, 3]: 40%

O=C(N[C@H](CO)[C@H](O)c1ccc([N+](=O)[O-])cc1)C(Cl)Cl [chloramphenicol]
overlap of carbon source utilization phenotype with the gyraseA/ciprofloxacin induced phenotype [1, 3]: 40%

O=C(O)c1cn(C2CC2)c2cc(N3CCNCC3)c(F)cc2c1=O [ciprofloxacin]
carbon source utilization phenotype compared with one of the gyraseA mutant alleles [1, 4]: reproduces the phenotype of one of the mutant alleles perfectly
overlap of carbon source utilization phenotype with the other two gyraseA mutant alleles [1, 4]: 46-71%

CCn1cc(C(=O)O)c(=O)c2cc(F)c(N3CCNCC3)cc21 [norfloxacin]
fold increase in susceptibility [2]: 8 fold

CO[C@@H]1[C@@H](OC(N)=O)[C@@H](O)[C@H](Oc2ccc3c(O)c(NC(=O)c4ccc(O)c(CC=C(C)C)c4)c(=O)oc3c2C)OC1(C)C [novobiocin]
carbon source utilization phenotype compared with gyraseA mutants and the ciprofloxacin induced phenotype [1, 3]: very similar phenotype
